{"source": "patent US20190374533A1", "about": "“COMPOUNDS AND METHODS FOR INHIBITING NHE-MEDIATED ANTIPORT IN THE TREATMENT OF DISORDERS ASSOCIATED WITH FLUID RETENTION OR SALT OVERLOAD AND GASTROINTESTINAL TRACT DISORDERS” (Ardelyx, Inc., priority 2008, published 2019)"}
{"tested_on": "not listed separately", "experiment": "Determination of compound Cmax and AUC", "assay_type": "in vivo", "settings": "rat; Sprague-Dawley rats, oral gavage, serum 0.5-4 h; actual oral dose (mg/kg) given", "procedure": "Sprague-Dawley rats were orally gavaged with test article (2.5 mg/kg) and serum was collected at 0.5, 1, 2 and 4 h. Serum samples were treated with acetonitrile, precipitated proteins removed by centrifugation and supernatants analyzed by LC/MS/MS and compared against a standard curve to determine compound concentration. All compounds were orally dosed at the dosage shown, and pharmacokinetic parameters determined as described in the text.", "units": {"AUC": "ng·h/mL", "Cmax": "ng/mL"}}
{"compound": "CN1Cc2c(Cl)cc(Cl)cc2C(c2cccc(S(=O)(=O)NCCOCCOCCOCCOCCOCCOCCOCCOCCOCCOCCN)c2)C1", "note": "(stereo not drawn) [Example 214, N-(32-amino-3,6,9,12,15,18,21,24,27,30-decaoxadotriacontyl)-3-(6,8-dichloro-2-methyl-1,2,3,4-tetrahydroisoquinolin-4-yl)benzenesulfonamide]", "AUC": "< 5", "Cmax": "< 5"}
{"compound": "CN1Cc2c(Cl)cc(Cl)cc2C(c2cccc(NC(=O)CCOCCOCCOCCNC(=O)[C@H](O)[C@@H](O)C(=O)NCCOCCOCCOCCC(=O)Nc3cccc(C4CN(C)Cc5c(Cl)cc(Cl)cc54)c3)c2)C1", "note": "(stereo partly drawn) [Example 179, (2R,3R)—N1,N4-bis(2-(2-(2-(3-(3-(6,8-dichloro-2-methyl-1,2,3,4-tetrahydroisoquinolin-4-yl)phenylamino)-3-oxopropoxy)ethoxy)ethoxy)ethyl)-2,3-dihydroxysuccinamide]", "AUC": "< 35", "Cmax": "< 16"}
{"compound": "CN1Cc2c(Cl)cc(Cl)cc2[C@H](c2cccc(S(=O)(=O)NCCOCCOCCOCCNC(=O)Nc3ccc(NC(=O)NCCOCCOCCOCCNS(=O)(=O)c4cccc([C@@H]5CN(C)Cc6c(Cl)cc(Cl)cc65)c4)cc3)c2)C1", "note": "(single isomer, unassigned) [Example 245, (S or R)—N,N′-(1,1′-(1,4-phenylenebis(azanediyl))bis(1-oxo-5,8,1-trioxa-2-azatridecane-13,1-diyl))bis(3-((S or R)-6,8-dichloro-2-methyl-1,2,3,4-tetrahydroisoquinolin-4-yl)benzenesulfonamide)]", "AUC": "< 2", "Cmax": "< 2"}
{"compound": "CN1Cc2c(Cl)cc(Cl)cc2C(c2cccc(S(=O)(=O)NCCOCCOCCOCCNC(=O)C(O)C(O)C(=O)NCCOCCOCCOCCNS(=O)(=O)c3cccc(C4CN(C)Cc5c(Cl)cc(Cl)cc54)c3)c2)C1", "note": "(stereo not drawn) [Example 172, N1,N4-bis(2-(2-(2-(2-(3-(6,8-dichloro-2-methyl-1,2,3,4-tetrahydroisoquinolin-4-yl)phenylsulfonamido)ethoxy)ethoxy)ethoxy)ethyl)-2,3-dihydroxysuccinamide]", "AUC": "< 2", "Cmax": "< 2"}
{"compound": "CN1Cc2c(Cl)cc(Cl)cc2C(c2ccc(S(=O)(=O)NCCOCCOCCNC(=O)c3cc(N)cc(C(=O)NCCOCCOCCNS(=O)(=O)c4ccc(C5CN(C)Cc6c(Cl)cc(Cl)cc65)cc4)c3)cc2)C1.O=C(O)C(F)(F)F.O=C(O)C(F)(F)F.O=C(O)C(F)(F)F", "note": "(stereo not drawn) [Example 186, 5-amino-N1,N3-bis(2-(2-(2-(4-(6,8-dichloro-2-methyl-1,2,3,4-tetrahydroisoquinolin-4-yl)phenylsulfonamido)ethoxy)ethoxy)ethyl)isophthalamide tris(2,2,2-trifluoroacetate)]", "AUC": "< 5", "Cmax": "< 3.4"}
{"compound": "CN1Cc2c(Cl)cc(Cl)cc2C(c2cccc(S(=O)(=O)NCCOCCOCCNC(=O)NCCOCCOCCNS(=O)(=O)c3cccc(C4CN(C)Cc5c(Cl)cc(Cl)cc54)c3)c2)C1", "note": "(stereo not drawn) [Example 235, N,N′-(10-oxo-3,6,14,17-tetraoxa-9,11-diazanonadecane-1,19-diyl)bis(3-(6,8-dichloro-2-methyl-1,2,3,4-tetrahydroisoquinolin-4-yl)benzenesulfonamide)]", "AUC": "< 5", "Cmax": "< 5"}
{"compound": "CN1Cc2c(Cl)cc(Cl)cc2C(c2cccc(S(=O)(=O)NCCNC(=O)C(O)C(O)C(=O)NCCNS(=O)(=O)c3cccc(C4CN(C)Cc5c(Cl)cc(Cl)cc54)c3)c2)C1", "note": "(stereo not drawn) [Example 169, N1,N4-bis(2-(3-(6,8-dichloro-2-methyl-1,2,3,4-tetrahydroisoquinolin-4-yl)phenylsulfonamido)ethyl)-2,3-dihydroxysuccinamide]", "AUC": "< 4", "Cmax": "< 3.5"}
{"compound": "CN1Cc2c(Cl)cc(Cl)cc2C(c2cccc(NC(=O)NCCOCCOCCOCCNC(=O)C(O)C(O)C(=O)NCCOCCOCCOCCNC(=O)Nc3cccc(C4CN(C)Cc5c(Cl)cc(Cl)cc54)c3)c2)C1", "note": "(stereo not drawn) [Example 174, N1,N4-bis(1-(3-(6,8-dichloro-2-methyl-1,2,3,4-tetrahydroisoquinolin-4-yl)phenylamino)-1-oxo-5,8,11-trioxa-2-azatridecan-13-yl)-2,3-dihydroxysuccinamide]", "AUC": "< 5", "Cmax": "< 5.4"}
{"compound": "CN1Cc2c(Cl)cc(Cl)cc2C(c2cccc(S(=O)(=O)NCCOCCOCCOCCNC(=O)CCC(=O)NCCOCCOCCOCCNS(=O)(=O)c3cccc(C4CN(C)Cc5c(Cl)cc(Cl)cc54)c3)c2)C1", "note": "(stereo not drawn) [Example 181, N1,N4-bis(2-(2-(2-(2-(3-(6,8-dichloro-2-methyl-1,2,3,4-tetrahydroisoquinolin-4-yl)phenylsulfonamido)ethoxy)ethoxy)ethoxy)ethyl)succinamide]", "AUC": "< 2", "Cmax": "< 2"}
{"compound": "CN1Cc2c(Cl)cc(Cl)cc2C(c2cccc(S(=O)(=O)NCCOCCOCCNC(=O)[C@H](O)[C@@H](O)C(=O)NCCOCCOCCNS(=O)(=O)c3cccc(C4CN(C)Cc5c(Cl)cc(Cl)cc54)c3)c2)C1", "note": "(stereo partly drawn) [Example 218, (2R,3R)—N1,N4-bis(2-(2-(2-(3-(6,8-dichloro-2-methyl-1,2,3,4-tetrahydroisoquinolin-4-yl)phenylsulfonamido)ethoxy)ethoxy)ethyl)-2,3-dihydroxysuccinamide]", "AUC": "< 1", "Cmax": "< 1"}
{"compound": "C/C(=C\\c1cc(F)c(Oc2ccc(S(=O)(=O)NCCN3CCN(CCNS(=O)(=O)c4ccc(Oc5c(F)cc(/C=C(\\C)C(=O)N=C(N)N)cc5F)cc4)CC3)cc2)c(F)c1)C(=O)N=C(N)N", "note": "[Example 50, N,N′-(2,2′-(piperazine-1,4-diyl)bis(ethane-2,1-diyl))di-((E)-N-(diaminomethylene)-3-(3,5-difluoro-4-(4-sulfamoylphenoxy)phenyl)-2-methylacrylamide)]", "AUC": 242, "Cmax": 93}
{"compound": "CN(CC(=O)NCCOCCOCCNS(=O)(=O)c1ccc(C2CN(C)Cc3c(Cl)cc(Cl)cc32)cc1)CC(=O)NCCOCCOCCNS(=O)(=O)c1ccc(C2CN(C)Cc3c(Cl)cc(Cl)cc32)cc1", "note": "(stereo not drawn) [Example 185, 2,2′-(methylazanediyl)bis(N-(2-(2-(2-(4-(6,8-dichloro-2-methyl-1,2,3,4-tetrahydroisoquinolin-4-yl)phenylsulfonamido)ethoxy)ethoxy)ethyl)acetamide) tris(2,2,2-trifluoroacetate)]", "AUC": "< 2", "Cmax": "< 2"}
{"compound": "CN1Cc2c(Cl)cc(Cl)cc2[C@@H](c2ccc(S(=O)(=O)NCCOCCOCCOCCNC(=O)C(O)C(O)C(=O)NCCOCCOCCOCCNS(=O)(=O)c3ccc([C@H]4CN(C)Cc5c(Cl)cc(Cl)cc54)cc3)cc2)C1", "note": "(single isomer, unassigned) [Example 226, N1,N4-bis(2-(2-(2-(2-(4-((R or S)-6,8-dichloro-2-methyl-1,2,3,4-tetrahydroisoquinolin-4-yl)phenylsulfonamido)ethoxy)ethoxy)ethoxy)ethyl)-2,3-dihydroxysuccinamide]", "AUC": "< 5", "Cmax": "< 3"}
{"compound": "CN1Cc2c(Cl)cc(Cl)cc2C(c2cccc(S(=O)(=O)NCCOCCOCCOCCNC(=O)C(=O)NCCOCCOCCOCCNS(=O)(=O)c3cccc(C4CN(C)Cc5c(Cl)cc(Cl)cc54)c3)c2)C1", "note": "(stereo not drawn) [Example 180, N1,N2-bis(2-(2-(2-(2-(3-(6,8-dichloro-2-methyl-1,2,3,4-tetrahydroisoquinolin-4-yl)phenylsulfonamido)ethoxy)ethoxy)ethoxy)ethyl)oxalamide]", "AUC": "< 19", "Cmax": "< 10"}
{"biological_target": "T1, rat NHE-3 (Rattus norvegicus, UniProt P26433)", "T1 construct": "expressed in transfected cells; host or cells: Opossum kidney (OK) cells (ATCC), electroporated", "T1 sequence (P26433 29-831)": "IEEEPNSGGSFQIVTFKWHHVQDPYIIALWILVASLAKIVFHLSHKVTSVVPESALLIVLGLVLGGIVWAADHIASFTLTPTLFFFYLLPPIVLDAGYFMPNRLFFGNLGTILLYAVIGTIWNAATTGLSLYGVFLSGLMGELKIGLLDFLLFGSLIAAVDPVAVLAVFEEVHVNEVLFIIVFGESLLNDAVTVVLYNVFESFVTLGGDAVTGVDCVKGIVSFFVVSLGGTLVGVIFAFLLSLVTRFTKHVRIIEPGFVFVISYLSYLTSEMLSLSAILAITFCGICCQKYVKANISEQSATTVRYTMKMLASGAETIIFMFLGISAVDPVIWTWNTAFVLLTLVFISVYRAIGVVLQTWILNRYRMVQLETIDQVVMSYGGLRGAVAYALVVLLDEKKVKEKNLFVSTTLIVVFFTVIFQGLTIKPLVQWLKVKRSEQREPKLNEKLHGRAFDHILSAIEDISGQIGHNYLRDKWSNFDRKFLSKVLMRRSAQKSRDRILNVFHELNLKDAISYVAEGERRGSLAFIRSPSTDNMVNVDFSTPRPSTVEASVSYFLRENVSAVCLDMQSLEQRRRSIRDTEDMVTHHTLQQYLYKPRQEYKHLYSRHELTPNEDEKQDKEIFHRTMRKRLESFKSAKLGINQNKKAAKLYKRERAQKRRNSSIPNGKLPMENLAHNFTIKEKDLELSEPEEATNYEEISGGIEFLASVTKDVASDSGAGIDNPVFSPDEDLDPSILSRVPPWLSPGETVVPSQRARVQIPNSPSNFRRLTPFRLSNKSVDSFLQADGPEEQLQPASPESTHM", "experiment": "Cell-based assay of NHE-3 activity (Pharmacological Test Example 1)", "settings": "OK cells expressing rat NHE-3; 0-30 uM test compound, 5 uM EIPA", "procedure": "Rat NHE-3-mediated Na^+-dependent H^+ antiport was measured using a modification of the pH sensitive dye method originally reported by Tsien (Proc. Natl. Acad. Sci. USA. (1984) 81(23): 7436-7440). Opossum kidney (OK) cells were obtained from the ATCC and propagated per their instructions. The rat NHE-3 gene was introduced into OK cells via electroporation, seeded into 96 well plates and grown overnight. Medium was aspirated from the wells, cells were washed twice with NaCl-HEPES buffer (100 mM NaCl, 50 mM HEPES, 10 mM glucose, 5 mM KCl, 2 mM CaCl2, 1 mM MgCl2, pH 7.4), then incubated for 30 min at room temperature with NH4Cl-HEPES buffer (20 mM NH4Cl, 80 mM NaCl, 50 mM HEPES, 5 mM KCl, 2 mM CaCl2), 1 mM MgCl2, pH 7.4) containing 5 uM BCECF-AM (Invitrogen). Cells were washed twice with Ammonium free, Nat-free HEPES (100 mM choline, 50 mM HEPES, 10 mM glucose, 5 mM KCl, 2 mM CaCl2), 1 mM MgCl2, pH 7.4) and incubated in the same buffer for 10 minutes at room temperature to lower intracellular pH. […] Initial rates were plotted as the average 3-6 replicates, and pIC50 values were estimated using GraphPad Prism."}
{"compound": "Nc1cccc(C2CN(CCOCCOCCOCCN3Cc4c(Cl)cc(Cl)cc4C(c4cccc(N)c4)C3)Cc3c(Cl)cc(Cl)cc32)c1", "note": "(stereo not drawn) [Example 171, 3,3′-(2,2′-(2,2′-(2,2′-oxybis(ethane-2,1-diyl)bis(oxy))bis(ethane-2,1-diyl))bis(6,8-dichloro-1,2,3,4-tetrahydroisoquinoline-4,2-diyl))dianiline]", "rat NHE-3 Average pIC50": "<5.0"}
{"compound": "NC(N)=NCCCN1CCN(c2cccc(-c3nc(N=C(N)N)nc4ccc(Cl)cc34)c2)CC1", "note": "[Example 67, 2-(4-(3-(4-(3-guanidinopropyl)piperazin-1-yl)phenyl)-6-chloroquinazolin-2-yl)guanidine]", "rat NHE-3 Average pIC50": "6 to 7"}
{"compound": "C/C(=C\\c1cc(F)c(Oc2ccc(S(=O)(=O)NCCOCCOCCOCCOCCOCCOCCNC(=O)[C@H](O)[C@@H](O)C(=O)NCCOCCOCCOCCOCCOCCOCCNS(=O)(=O)c3ccc(Oc4c(F)cc(/C=C(\\C)C(=O)N=C(N)N)cc4F)cc3)cc2)c(F)c1)C(=O)N=C(N)N", "note": "[Example 210, (2R,3R)—N1,N4-bis(20-(4-(4-((E)-3-(diaminomethyleneamino)-2-methyl-3-oxoprop-1-enyl)-2,6-difluorophenoxy)phenylsulfonamido)-3,6,9,12,15,18-hexaoxaicosyl)-2,3-dihydroxysuccinamide]", "rat NHE-3 Average pIC50": "6 to 7"}
{"compound": "N=C(N)Nc1nc(-c2cccc(N3CCN(CCC(=O)O)CC3)c2)c2cc(Cl)ccc2n1", "note": "[Example 64, 3-(4-(3-(6-chloro-2-(diaminomethyleneamino)quinazolin-4-yl)phenyl)piperazin-1-yl)propanoic acid]", "rat NHE-3 Average pIC50": "5 to 6"}
{"compound": "N=C(N)N1CCN(c2ccc(-c3nc(N=C(N)N)nc4ccc(Cl)cc34)cc2)CC1", "note": "[Example 66, 4-(4-(6-chloro-2-(diaminomethyleneamino)quinazolin-4-yl)phenyl)piperazine-1-carboximidamide]", "rat NHE-3 Average pIC50": "6 to 7"}
